Source: patent publication US11479550B2, “EP4 antagonist” (ONO PHARMACEUTICAL CO., LTD., priority 2017, dated 2022)

molecular target: human EP4 receptor (Homo sapiens (Human), UniProt P35408); test: EP4 antagonistic activity measurement experiment using prostanoid receptor subtype expressing cells; type: cell-based; details: CHO cells expressing human EP4 receptor; inhibition of cAMP production by PGE2 10 nM; 30 minutes at room temperature
Experimental: CHO cells expressing human EP4 receptor subtypes were prepared according to the methods of Nishigaki et al. (Non-Patent Literature 4), and used for experiment. Cells cultured to subconfluent were detached, and suspended in an assay medium (MEM containing 1 mmol/L IBMX, 1% HSA) such that a concentration became 1×10^6 cells/mL. For reaction, PGE2 was added to the cell suspension (25 μL) in a final concentration of 10 nmol/L, either alone or as a 25-μL PGE2 solution containing the test compound. After 30 minutes of reaction at room temperature, the amount of cAMP in the cells was quantified according to the method in the descriptions of the cAMP assay kit (CISBIO).
Note here that the antagonistic effect (IC50 value) of the test compound was calculated as a value that represents an inhibition rate against a reaction with PGE2 alone at 10 nM, a concentration that produces a submaximal cAMP producing effect.

Chain of human EP4 receptor (P35408 whole entry): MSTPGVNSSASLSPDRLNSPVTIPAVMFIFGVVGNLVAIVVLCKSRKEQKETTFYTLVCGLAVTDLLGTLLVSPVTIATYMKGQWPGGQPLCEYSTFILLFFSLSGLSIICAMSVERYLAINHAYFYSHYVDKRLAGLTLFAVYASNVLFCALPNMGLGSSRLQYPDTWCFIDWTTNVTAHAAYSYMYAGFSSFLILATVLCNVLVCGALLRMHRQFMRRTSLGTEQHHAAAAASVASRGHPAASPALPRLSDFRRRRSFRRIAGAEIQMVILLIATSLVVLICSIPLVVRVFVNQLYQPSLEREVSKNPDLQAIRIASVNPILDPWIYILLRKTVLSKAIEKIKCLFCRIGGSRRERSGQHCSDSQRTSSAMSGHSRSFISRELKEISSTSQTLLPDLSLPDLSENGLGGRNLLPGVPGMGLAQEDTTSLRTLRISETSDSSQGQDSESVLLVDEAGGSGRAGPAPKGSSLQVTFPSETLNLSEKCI

Structure (SMILES)	IC50
CNC(=O)c1ccc2c(C)cn(C(C)C(=O)Nc3cc(Cn4cc(F)cn4)ccc3CCCC(=O)O)c2c1 (single isomer, unassigned) [Example 4-8(2), 4-{4-[(4-fluoro-1H-pyrazol-1-yl)methyl]-2-({2-[3-methyl-6-(methylcarbamoyl)-1H-indol-1-yl]propanoyl}amino)phenyl}butanoic acid]	2.7 nM
Cc1cn(C(C)C(=O)Nc2cc(C#N)ccc2CCCC(=O)O)c2cc(C(=O)NCc3ccccc3)ccc12 (centres unmarked) [Example 11-8, 4-[2-({2-[6-(benzylcarbamoyl)-3-methyl-1H-indol-1-yl]propanoyl}amino)-4-cyanophenyl]butanoic acid]	4 nM
CNC(=O)c1ccc2c(C)cn(C(C)C(=O)Nc3cc(C(O)c4cnn(C)c4)ccc3CCCC(=O)O)c2c1 (centres unmarked) [Example 18-3]	6.2 nM
CNC(=O)c1ccc2c(C)cn(C(C)C(=O)Nc3cc(Cn4cnc(C(F)(F)F)n4)ccc3CCCC(=O)O)c2c1 (single isomer, unassigned) [Example 7-3(2), 4-[2-({2-[3-methyl-6-(methylcarbamoyl)-1H-indol-1-yl]propanoyl}amino)-4-{[3-(trifluoromethyl)-1H-1,2,4-triazol-1-yl]methyl}phenyl]butanoic acid]	1.5 nM
Cc1cnn(Cc2ccc(CCCC(=O)O)c(NC(=O)C(C)n3cc(C)c4ccc(C(=O)N(C)C)cc43)c2)c1 (single isomer, unassigned) [Example 3-11(2), 4-{2-({2-[6-(dimethylcarbamoyl)-3-methyl-1H-indol-1-yl]propanoyl}amino)-4-[(4-methyl-1H-pyrazol-1-yl)methyl]phenyl}butanoic acid]	4.6 nM
CNC(=O)c1ccc2c(C)cn(C(C)C(=O)Nc3cc(C#N)ccc3CCCC(=O)O)c2c1 (single isomer, unassigned) [Example 11-3(2), 4-[4-cyano-2-({2-[3-methyl-6-(methylcarbamoyl)-1H-indol-1-yl]propanoyl}amino)phenyl]butanoic acid]	2.7 nM
CNC(=O)c1ccc2c(C3CC3)cn(C(C)C(=O)Nc3cc(C#N)ccc3CCCC(=O)O)c2c1 (single isomer, unassigned) [Example 11-23(2), 4-[4-cyano-2-({2-[3-cyclopropyl-6-(methylcarbamoyl)-1H-indol-1-yl]propanoyl}amino)phenyl]butanoic acid]	6.5 nM
CNC(=O)c1ccc2c(C)cn(C(C)C(=O)Nc3cc(Oc4ccccc4)ccc3CCCC(=O)O)c2c1 (centres unmarked) [Example 13, 4-[2-({2-[3-methyl-6-(methylcarbamoyl)-1H-indol-1-yl]propanoyl}amino)-4-phenoxyphenyl]butanoic acid]	0.79 nM
CNC(=O)c1ccc2c(C)cn(C(C)C(=O)Nc3cc(Cn4cc(Cl)cn4)ccc3CCCC(=O)O)c2c1 (centres unmarked) [Example 1-14, 4-{4-[(4-chloro-1H-pyrazol-1-yl)methyl]-2-({2-[3-methyl-6-(methylcarbamoyl)-1H-indol-1-yl]propanoyl}amino)phenyl}butanoic acid]	3.3 nM
COCCNC(=O)c1ccc2c(C3CC3)cn(C(C)C(=O)Nc3cc(C#N)ccc3CCCC(=O)O)c2c1 (single isomer, unassigned) [Example 11-25(2), 4-{4-cyano-2-[(2-{3-cyclopropyl-6-[(2-methoxyethyl)carbamoyl]-1H-indol-1-yl}propanoyl)amino]phenyl}butanoic acid]	0.57 nM
CNC(=O)c1ccc2c(C)cn(C(C)C(=O)Nc3cc(Cn4cnc(C5CC5)n4)ccc3CCCC(=O)O)c2c1 (single isomer, unassigned) [Example 4-1(2), 4-{4-[(3-cyclopropyl-1H-1,2,4-triazol-1-yl)methyl]-2-({2-[3-methyl-6-(methylcarbamoyl)-1H-indol-1-yl]propanoyl}amino)phenyl}butanoic acid]	2.5 nM
CNC(=O)c1ccc2c(C)cn(C(C)C(=O)Nc3cc(Cn4cc(C)cn4)ccc3CCCC(=O)O)c2c1 (single isomer, unassigned) [Example 12-1(2), 4-{2-({2-[3-methyl-6-(methylcarbamoyl)-1H-indol-1-yl]propanoyl}amino)-4-[(4-methyl-1H-pyrazol-1-yl)methyl]phenyl}butanoic acid]	1.6 nM
Cc1cn(C(C)C(=O)Nc2cc(C#N)ccc2CCCC(=O)O)c2cc(C(=O)NC3CCCC3)ccc12 (single isomer, unassigned) [Example 11-11(2), 4-[4-cyano-2-({2-[6-(cyclopentylcarbamoyl)-3-methyl-1H-indol-1-yl]propanoyl}amino)phenyl]butanoic acid]	2 nM
CNC(=O)c1ccc2c(C)cn(C(C)C(=O)Nc3cc(-c4nnc(C)o4)ccc3CCCC(=O)O)c2c1 (single isomer, unassigned) [Example 15-1(2), 4-[2-({2-[3-methyl-6-(methylcarbamoyl)-1H-indol-1-yl]propanoyl}amino)-4-(5-methyl-1,3,4-oxadiazol-2-yl)phenyl]butanoic acid]	6.4 nM
Cc1cnn(Cc2ccc(CCCC(=O)O)c(NC(=O)C(C)n3cc(C)c4cc(C(=O)N5CCCC5)ccc43)c2)c1 (single isomer, unassigned) [Example 8-17(2), 4-{4-[(4-methyl-1H-pyrazol-1-yl)methyl]-2-({2-[3-methyl-5-(1-pyrrolidinylcarbonyl)-1H-indol-1-yl]propanoyl}amino)phenyl}butanoic acid]	8.6 nM
Cc1cnn(Cc2ccc(CCCC(=O)O)c(NC(=O)C(C)n3cc(C)c4ccc(C(=O)NC(C)C)cc43)c2)c1 (single isomer, unassigned) [Example 3-7(2), 4-{2-({2-[6-(isopropylcarbamoyl)-3-methyl-1H-indol-1-yl]propanoyl}amino)-4-[(4-methyl-1H-pyrazol-1-yl)methyl]phenyl}butanoic acid]	1.7 nM
Cc1cn(C(C)C(=O)Nc2cc(C#N)ccc2CCCC(=O)O)c2cc(C(=O)NC(C)(C)C)ccc12 (single isomer, unassigned) [Example 11-7(2), 4-{4-cyano-2-[(2-{3-methyl-6-[(2-methyl-2-propanyl)carbamoyl]-1H-indol-1-yl}propanoyl)amino]phenyl}butanoic acid]	1.6 nM
COCCNC(=O)c1ccc2c(C3CC3)cn(C(C)C(=O)Nc3cc(Cn4cc(C)cn4)ccc3CCCC(=O)O)c2c1 (single isomer, unassigned) [Example 9-5(2), 4-{2-[(2-{3-cyclopropyl-6-[(2-methoxyethyl)carbamoyl]-1H-indol-1-yl}propanoyl)amino]-4-[(4-methyl-1H-pyrazol-1-yl)methyl]phenyl}butanoic acid]	2.2 nM
COCCNC(=O)c1ccc2c(C)cn(C(C)C(=O)Nc3cc(Cn4cnc(C(F)(F)F)n4)ccc3CCCC(=O)O)c2c1 (single isomer, unassigned) [Example 7-1(2), 4-(2-[(2-{6-[(2-methoxyethyl)carbamoyl]-3-methyl-1H-indol-1-yl}propanoyl)amino]-4-{[3-(trifluoromethyl)-1H-1,2,4-triazol-1-yl]methyl}phenyl)butanoic acid]	3.3 nM
CNC(=O)c1ccc2c(C)cn(C(C)C(=O)Nc3cc(Cn4cc5c(n4)CCC5)ccc3CCCC(=O)O)c2c1 (centres unmarked) [Example 2-18, 4-[4-(5,6-dihydrocyclopenta[c]pyrazol-2(4H)-ylmethyl)-2-({2-[3-methyl-6-(methylcarbamoyl)-1H-indol-1-yl]propanoyl}amino)phenyl]butanoic acid]	5.5 nM
CNC(=O)c1ccc2c(C3CC3)cn(C(C)C(=O)Nc3cc(Cn4cc(C)cn4)ccc3CCCC(=O)O)c2c1 (single isomer, unassigned) [Example 9-1(2), 4-{2-({2-[3-cyclopropyl-6-(methylcarbamoyl)-1H-indol-1-yl]propanoyl}amino)-4-[(4-methyl-1H-pyrazol-1-yl)methyl]phenyl}butanoic acid]	4.6 nM
CNC(=O)c1ccc2c(C)cn(C(C)C(=O)Nc3cc(COc4cc(C)nc(C)c4)ccc3CCCC(=O)O)c2c1 (centres unmarked) [Example 1-5, 4-[4-{[(2,6-dimethyl-4-pyridinyl)oxy]methyl}-2-({2-[3-methyl-6-(methylcarbamoyl)-1H-indol-1-yl]propanoyl}amino)phenyl]butanoic acid]	4.9 nM
CNC(=O)c1ccc2c(C)cn(C(C)C(=O)Nc3cc(Cn4cc(C(C)C)nn4)ccc3CCCC(=O)O)c2c1 (single isomer, unassigned) [Example 6-5(1), 4-{4-[(4-isopropyl-1H-1,2,3-triazol-1-yl)methyl]-2-({2-[3-methyl-6-(methylcarbamoyl)-1H-indol-1-yl]propanoyl}amino)phenyl}butanoic acid]	2.7 nM
COCCNC(=O)c1ccc2c(C)cn(C(C)C(=O)Nc3cc(F)ccc3CCCC(=O)O)c2c1 (single isomer, unassigned) [Example 11-30(2), 4-{4-fluoro-2-[(2-{6-[(2-methoxyethyl)carbamoyl]-3-methyl-1H-indol-1-yl}propanoyl)amino]phenyl}butanoic acid]	12 nM
CNC(=O)c1ccc2c(C)cn(C(C)C(=O)Nc3cc(Cn4cc(C)c(C)n4)ccc3CCCC(=O)O)c2c1 (single isomer, unassigned) [Example 2-6(2), 4-{4-[(3,4-dimethyl-1H-pyrazol-1-yl)methyl]-2-({2-[3-methyl-6-(methylcarbamoyl)-1H-indol-1-yl]propanoyl}amino)phenyl}butanoic acid]	1.2 nM
Cc1cnn(Cc2ccc(CCCC(=O)O)c(NC(=O)C(C)n3cc(C)c4cc(C(=O)NC(C)C)ccc43)c2)c1 (single isomer, unassigned) [Example 8-9(2), 4-{2-({2-[5-(isopropylcarbamoyl)-3-methyl-1H-indol-1-yl]propanoyl}amino)-4-[(4-methyl-1H-pyrazol-1-yl)methyl]phenyl}butanoic acid]	3.3 nM
